Measurements: ChEMBL document CHEMBL1201862, “PubChem BioAssay data set” (2004)
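Step 1: Grow cells in 96-well plates. Step 2: Expose to compound for 48 hours at 5 concentrations. Step 3: Interpolate endpoints linearly; if unreached, use highest concentration. At the GI50, growth is halved.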 Activity calls are given as the source filed them. Rule as the data show it: active = GI50 up to about 1.1 µM and inactive = higher.

Tests used:
Test in all cases: DTP human tumour cell line panel, 48 h
[1] = tested on: COLO 205
[2] = tested on: HOP-92
[3] = tested on: SF-539
[4] = tested on: HCC 2998
[5] = tested on: A549
[6] = tested on: HOP-62
[7] = tested on: NCI-H23
[8] = tested on: BT-549
[9] = tested on: OVCAR-8
[10] = tested on: HCT-15
[11] = tested on: SNB-19
[12] = tested on: UO-31
[13] = tested on: CAKI-1
[14] = tested on: SR
[15] = tested on: MCF7
[16] = tested on: CCRF-CEM
[17] = tested on: UACC-257
[18] = tested on: NCI/ADR-RES
[19] = tested on: RPMI-8226
[20] = tested on: LOX IMVI

Measured: GI50

Cn1c(-c2cccs2)cc(-c2ccsc2)c1-c1ccsc1
> 100 µM: [10]
inactive: [1] > 100 µM | [2] > 100 µM | [3] > 100 µM | [4] > 100 µM | [5] > 100 µM | [6] > 100 µM | [7] 8.24 µM | [8] > 100 µM | [9] > 100 µM | [11] > 100 µM | [12] > 100 µM | [13] > 100 µM | [14] > 100 µM | [15] 6.59 µM | [16] > 100 µM | [17] > 100 µM | [18] > 100 µM

COC(=O)/C=C\[C@@H]1[C@H](C)N1S(=O)(=O)c1ccc(C)cc1 (stereo partly specified)
> 100 µM: [10]
inactive: [1] > 100 µM | [3] > 100 µM | [19] > 100 µM | [4] > 100 µM | [20] > 100 µM | [5] > 100 µM | [6] > 100 µM | [7] > 100 µM | [8] > 100 µM | [9] > 100 µM | [11] > 100 µM | [13] > 100 µM | [14] > 100 µM | [15] > 100 µM | [16] > 100 µM | [17] > 100 µM | [18] > 100 µM

O=C(CN1CCOCC1)c1ccc2[nH]c(=O)oc2c1
inactive: [1] > 100 µM | [3] > 100 µM | [19] > 100 µM | [20] > 100 µM | [6] > 100 µM | [7] > 100 µM | [8] > 100 µM | [9] > 100 µM | [11] > 100 µM | [12] 41.9 µM | [13] > 100 µM | [14] > 100 µM | [15] > 100 µM | [16] > 100 µM | [17] > 100 µM | [18] > 100 µM
> 100 µM: [10]

CC(NC(=O)C(N)CC(=O)O)NC(=O)N(C)C(C)(C)C (stereo unspecified)
> 100 µM: [10]
inactive: [1] > 100 µM | [3] > 100 µM | [19] > 100 µM | [4] > 100 µM | [20] > 100 µM | [5] > 100 µM | [6] > 100 µM | [7] > 100 µM | [8] > 100 µM | [9] > 100 µM | [11] > 100 µM | [12] > 100 µM | [13] > 100 µM | [14] > 100 µM | [15] > 100 µM | [16] > 100 µM | [17] > 100 µM | [18] > 100 µM

Cc1ccc(-c2n[nH]c(=O)n2/N=C\c2ccccc2O)cc1
inactive: [1] > 100 µM | [2] > 100 µM | [3] > 100 µM | [19] > 100 µM | [4] > 100 µM | [5] > 100 µM | [6] > 100 µM | [7] > 100 µM | [8] > 100 µM | [9] > 100 µM | [11] > 100 µM | [12] > 100 µM | [13] > 100 µM | [14] > 100 µM | [15] 55.6 µM | [16] > 100 µM | [17] > 100 µM | [18] > 100 µM
> 100 µM: [10]

COc1ccc(C2CC(c3c(O)ccc4ccccc34)=NN2C(C)=O)cc1OC (stereo unspecified)
30.1 µM: [10]
inactive: [1] 17 µM | [2] 27.8 µM | [3] 18.7 µM | [19] 12 µM | [4] 23.7 µM | [5] 24.9 µM | [6] 26.9 µM | [7] 23.4 µM | [8] 17 µM | [9] 34.4 µM | [12] 23.1 µM | [13] 36.5 µM | [14] 14.2 µM | [15] 23.7 µM | [16] 12.6 µM | [17] 34.8 µM | [18] 26.5 µM

COc1cc(OCCN(C)C)c2[nH]c(C(=O)N3CC(CCl)c4c3cc(N)c3ccccc43)cc2c1 (stereo unspecified)
< 0.01 µM: [10]
active: [1] < 0.01 µM | [2] < 0.01 µM | [3] < 0.01 µM | [19] < 0.01 µM | [4] < 0.01 µM | [20] < 0.01 µM | [5] < 0.01 µM | [6] < 0.01 µM | [7] < 0.01 µM | [8] 0.0268 µM | [9] < 0.01 µM | [11] < 0.01 µM | [12] < 0.01 µM | [13] < 0.01 µM | [15] < 0.01 µM | [16] < 0.01 µM | [17] < 0.01 µM | [18] < 0.01 µM

CC(C)c1cc(C(F)(F)F)nc(NNc2nc(C(C)C)cc(C(F)(F)F)n2)n1
> 100 µM: [10]
inactive: [1] > 100 µM | [2] > 100 µM | [3] 90.8 µM | [19] > 100 µM | [5] 94 µM | [6] 13.2 µM | [7] 53.8 µM | [8] > 100 µM | [9] > 100 µM | [11] 41.7 µM | [12] > 100 µM | [13] 64.7 µM | [14] > 100 µM | [15] > 100 µM | [16] > 100 µM | [17] 15.9 µM | [18] > 100 µM
